# Test results reported in ChEMBL document CHEMBL1201862, “PubChem BioAssay data set” (2004).
#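 Dose response: 5 concentrations. Exposure: 48 h. Format: 96-well plates. Endpoint: linear interpolation; highest concentration if not reached. GI50: concentration for 50% inhibition of growth.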 Active and inactive are the calls of the source. Cut-off read from the data, not from the text of the source: active = GI50 up to about 1.1 µM and inactive = higher.
# Legend:
# Experiment in all cases: growth of human tumour cells (NCI), 48 h
# MDA-MB-435 = tested on: MDA-MB-435
# OVCAR-4 = tested on: OVCAR-4
# SF-539 = tested on: SF-539
# NCI-H226 = tested on: NCI-H226
# BT-549 = tested on: BT-549
# HT-29 = tested on: HT-29
# KM12 = tested on: KM12
# SNB-19 = tested on: SNB-19
# MCF7 = tested on: MCF7
# 786-0 = tested on: 786-0
# OVCAR-3 = tested on: OVCAR-3
# OVCAR-5 = tested on: OVCAR-5
# HOP-62 = tested on: HOP-62
# MDA-N = tested on: MDA-N
# CAKI-1 = tested on: CAKI-1
# NCI-H522 = tested on: NCI-H522
# SK-OV-3 = tested on: SK-OV-3
# OVCAR-8 = tested on: OVCAR-8
# K562 = tested on: K562
# SK-MEL-2 = tested on: SK-MEL-2
Structure (SMILES),GI50 (MDA-MB-435),GI50 (OVCAR-4),GI50 (SF-539),GI50 (NCI-H226),GI50 (BT-549),GI50 (HT-29),GI50 (KM12),GI50 (SNB-19),GI50 (MCF7),GI50 (786-0),GI50 (OVCAR-3),GI50 (OVCAR-5),GI50 (HOP-62),GI50 (MDA-N),GI50 (CAKI-1),GI50 (NCI-H522),GI50 (SK-OV-3),GI50 (OVCAR-8),GI50 (K562),GI50 (SK-MEL-2)
CC(=O)OCCC[C@@H]1C(=C(C)C)CCC2[C@@]1(C)CC[C@@]1(C)C[C@](C)(CCC=C(C)C)CC[C@]21C (stereo partly specified),> 100 µM (inactive),> 100 µM (inactive),> 100 µM (inactive),> 100 µM (inactive),> 100 µM (inactive),> 100 µM (inactive),> 100 µM (inactive),> 100 µM (inactive),> 100 µM (inactive),> 100 µM (inactive),> 100 µM (inactive),> 100 µM (inactive),> 100 µM (inactive),> 100 µM (inactive),> 100 µM (inactive),> 100 µM (inactive),> 100 µM (inactive),> 100 µM (inactive),–,–
COC(=O)[C@H](C)[C@@H]1CC[C@](C)(CCC2=C(C)CCCC2(C)C)OO1,> 25 µM (inactive),> 25 µM (inactive),> 25 µM (inactive),–,> 25 µM (inactive),> 25 µM (inactive),> 25 µM (inactive),> 25 µM (inactive),> 25 µM (inactive),> 25 µM (inactive),> 25 µM (inactive),> 25 µM (inactive),> 25 µM (inactive),> 25 µM (inactive),> 25 µM (inactive),16.1 µM (inactive),> 25 µM (inactive),> 25 µM (inactive),14.3 µM (inactive),> 25 µM (inactive)
CN(C)c1n/c(=N/Cc2ccncc2)ss1,38.9 µM (inactive),18.7 µM (inactive),> 46.9 µM (inactive),> 100 µM (inactive),19.8 µM (inactive),19.3 µM (inactive),> 10 µM (inactive),> 71.4 µM (inactive),61 µM (inactive),17.4 µM (inactive),> 48.6 µM (inactive),22.6 µM (inactive),> 10 µM (inactive),21.7 µM (inactive),31.5 µM (inactive),16.1 µM (inactive),> 40 µM (inactive),17.6 µM (inactive),17 µM (inactive),–
COC1/C=C/C(C)C(O)CC(O)/C=C/C(C)C(C(C)C(OC)C(C)CCC(=O)C(C)C(C/C=C/N(C)C=O)OC)OC(=O)/C=C/C=C(\C)CC(OC)CC2=CC(=O)O[C@@H](C(C)C(OC)C1)[C@H]2O (stereo partly specified),0.0105 µM (active),0.0267 µM (active),< 0.005 µM (active),< 0.005 µM (active),0.0311 µM (active),< 0.005 µM (active),< 0.005 µM (active),0.0168 µM (active),0.00522 µM (active),< 0.005 µM (active),< 0.005 µM (active),0.0103 µM (active),0.00515 µM (active),< 0.005 µM (active),< 0.005 µM (active),< 0.005 µM (active),< 0.005 µM (active),< 0.005 µM (active),–,–
CC1(c2ccc(Cl)cc2)CC(c2ccc(Cl)cc2)=C(C#N)C(=C(C#N)C#N)N1 (stereo unspecified),18 µM (inactive),14.8 µM (inactive),18.4 µM (inactive),18.5 µM (inactive),19.4 µM (inactive),12.8 µM (inactive),19.9 µM (inactive),17.5 µM (inactive),18.9 µM (inactive),11.1 µM (inactive),11.3 µM (inactive),25.8 µM (inactive),7.36 µM (inactive),19 µM (inactive),16.8 µM (inactive),–,16.9 µM (inactive),14.9 µM (inactive),13.8 µM (inactive),22.9 µM (inactive)
O=c1cc(CO)n(CCc2c[nH]c3ccccc23)cc1O,> 100 µM (inactive),–,> 100 µM (inactive),–,> 100 µM (inactive),34 µM (inactive),42.1 µM (inactive),37.1 µM (inactive),25.1 µM (inactive),34.8 µM (inactive),26.2 µM (inactive),81.5 µM (inactive),62.7 µM (inactive),21.3 µM (inactive),46.2 µM (inactive),24.7 µM (inactive),48.4 µM (inactive),69.7 µM (inactive),–,30.1 µM (inactive)
COC(=O)[C@@]12CN(C)[C@@H](C(C)(C)C)N1C(=O)OC2c1ccccc1 (stereo partly specified),> 100 µM (inactive),> 100 µM (inactive),> 100 µM (inactive),> 100 µM (inactive),> 100 µM (inactive),> 100 µM (inactive),> 100 µM (inactive),> 100 µM (inactive),> 100 µM (inactive),> 100 µM (inactive),> 100 µM (inactive),> 100 µM (inactive),> 100 µM (inactive),> 100 µM (inactive),> 100 µM (inactive),> 100 µM (inactive),> 100 µM (inactive),> 100 µM (inactive),> 100 µM (inactive),–
O=C(CCCCCCCCC(=O)N1C(=O)CC(=O)N(c2cccc(Cl)c2)C1=S)N1C(=O)CC(=O)N(c2cccc(Cl)c2)C1=S,59.8 µM (inactive),37.7 µM (inactive),–,–,44.1 µM (inactive),36.9 µM (inactive),40.3 µM (inactive),33.7 µM (inactive),34.3 µM (inactive),45.6 µM (inactive),25.2 µM (inactive),56.6 µM (inactive),43.2 µM (inactive),41.2 µM (inactive),20.5 µM (inactive),16.3 µM (inactive),42.6 µM (inactive),34.9 µM (inactive),–,37.7 µM (inactive)
